In general, IC50 refers to the point on the concentration scale where inhibition reaches its midpoint.

From patent US12325697B2 (Nimbus Clio, Inc., priority 2021, dated 2025) come the findings set out here.

Assay [1] concerns the target Recombinant human Cbl-b (aa 36-427) (Homo sapiens (Human), UniProt Q13191). Nature of the assay: Cbl-b Biochemical Assay (TR-FRET). As to conditions: read-out: TR-FRET hCbl-b IC50. In a few lines:
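Two-step TR-FRET: 6 nM biotinylated Cbl-b preincubated 30-60 min with compound, then 60 min at RT with 1-2.5 nM Src-Zap70 and 0.5 mM ATP in HEPES pH 7.0 buffer, 1% DMSO. Stopped with 5 mM EDTA plus 100 nM UBE2D2-Ub-FL-BODIPY and 1 nM streptavidin-Tb, 60 min; 520 nm signal; IC50 from 4-parameter fit.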
For orientation: In TR-FRET formats the signal depends on donor and acceptor labels being close together.

Assay [2] deals with Recombinant human c-Cbl (aa 47-435) (Homo sapiens (Human), UniProt P22681). Briefly: c-Cbl Biochemical Assay (TR-FRET). In a few lines: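 Biotinylated c-Cbl (6 nM) preincubated 30 min RT with compound, then reacted 60-90 min with Src-Zap70 (2.5-10 nM) and 0.5 mM ATP, pH 7.0 HEPES buffer. Stopped with EDTA; 100 nM Bodipy-ubiquitinated UBE2D2 binding read by TR-FRET after 60 min; IC50 from 4-parameter fit.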
Recombinant human c-Cbl (aa 47-435), sequence (P22681 47-435): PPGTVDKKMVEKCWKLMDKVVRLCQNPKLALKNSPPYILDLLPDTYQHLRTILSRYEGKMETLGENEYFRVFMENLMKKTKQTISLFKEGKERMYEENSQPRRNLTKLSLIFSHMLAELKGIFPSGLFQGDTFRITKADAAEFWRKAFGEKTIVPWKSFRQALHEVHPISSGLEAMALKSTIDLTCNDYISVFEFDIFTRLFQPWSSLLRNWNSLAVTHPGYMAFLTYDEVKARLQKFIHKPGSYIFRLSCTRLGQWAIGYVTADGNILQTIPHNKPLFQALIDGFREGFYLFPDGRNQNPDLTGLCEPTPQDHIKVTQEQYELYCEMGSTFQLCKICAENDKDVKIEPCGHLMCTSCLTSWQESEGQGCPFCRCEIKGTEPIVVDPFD

Recombinant human Cbl-b (aa 36-427), sequence (Q13191 36-427): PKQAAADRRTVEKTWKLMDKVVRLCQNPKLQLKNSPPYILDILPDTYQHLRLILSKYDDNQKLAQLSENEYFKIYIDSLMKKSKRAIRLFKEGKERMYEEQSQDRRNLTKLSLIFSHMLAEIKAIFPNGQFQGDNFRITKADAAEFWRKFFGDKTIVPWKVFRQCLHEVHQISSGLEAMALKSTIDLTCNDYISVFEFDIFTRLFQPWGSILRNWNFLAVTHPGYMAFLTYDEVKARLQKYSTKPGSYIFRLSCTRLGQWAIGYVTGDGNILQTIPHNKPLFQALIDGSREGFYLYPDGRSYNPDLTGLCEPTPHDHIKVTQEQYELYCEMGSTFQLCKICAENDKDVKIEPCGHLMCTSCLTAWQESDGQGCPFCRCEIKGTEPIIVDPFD

In the case of `Cn1cnnc1-c1cc(C#N)ccc1-c1cc(C2CC2)nc(N2Cc3c(F)cc(CN4CC[C@H]5C[C@H]54)cc3C2=O)c1` [AMX-3, 4-(2-{6-[(1R,5S)-2-Azabicyclo[3.1.0]hexan-2-ylmethyl]-4-fluoro-1-oxo-3H-isoindol-2-yl}-6-cyclopropylpyridin-4-yl)-3-(4-methyl-1,2,4-triazol-3-yl)benzonitrile], the IC50 in assay [1] and in assay [2] was ≤ 200 nM each time.
As for `Cn1cnnc1-c1cc(C#N)ccc1-c1cc(C2CC2)nc(N2Cc3c(F)cc(CN4CC[C@@H]5C[C@@H]54)cc3C2=O)c1` [AMY-1, 4-(2-{6-[(1S,5R)-2-Azabicyclo[3.1.0]hexan-2-ylmethyl]-4-fluoro-1-oxo-3H-isoindol-2-yl}-6-cyclopropylpyridin-4-yl)-3-(4-methyl-1,2,4-triazol-3-yl)benzonitrile], the IC50 in assay [1] and in assay [2] was ≤ 200 nM throughout.
As for `COCCN(C)Cc1cc2c(c(F)c1F)CN(c1cc(-c3ccc(C#N)cc3-c3nncn3C)cc(C3CC3)n1)C2=O` [AMZ-3, 4-[2-Cyclopropyl-6-(4,5-difluoro-6-{[(2-methoxyethyl)(methyl)amino]methyl}-1-oxo-3H-isoindol-2-yl)pyridin-4-yl]-3-(4-methyl-1,2,4-triazol-3-yl)benzonitrile], the IC50 in assay [1] and in assay [2] was ≤ 200 nM in each case.
Turning to `Cn1cnnc1-c1cc(C#N)ccc1-c1cc(C2CC2)nc(N2Cc3ccc(CN4CC5CC5C4)cc3C2=O)c1` (centres unmarked) [ANA-1, 4-[2-(6-{3-Azabicyclo[3.1.0]hexan-3-ylmethyl}-1-oxo-3H-isoindol-2-yl)-6-cyclopropylpyridin-4-yl]-3-(4-methyl-1,2,4-triazol-3-yl)benzonitrile], the IC50 in assay [1] and in assay [2] was ≤ 200 nM each time.
Regarding `Cn1cnnc1-c1cc(C#N)ccc1-c1cc(C2CC2)nc(N2Cc3c(F)cc(CNCC4COC4)cc3C2=O)c1` [ANB-1, 4-[2-Cyclopropyl-6-(4-fluoro-6-{[(oxetan-3-ylmethyl)amino]methyl}-1-oxo-3H-isoindol-2-yl)pyridin-4-yl]-3-(4-methyl-1,2,4-triazol-3-yl)benzonitrile], the IC50 in assay [1] and in assay [2] was ≤ 200 nM throughout.
Take `C[C@@H]1[C@@H](O)CCN1Cc1cc(F)c2c(c1)C(=O)N(c1cc(-c3ccc(C#N)cc3-c3nncn3C)cc(C3CC3)n1)C2` [ANC-2, 4-[2-Cyclopropyl-6-(4-fluoro-6-{[(2R,3S)-3-hydroxy-2-methylpyrrolidin-1-yl]methyl}-1-oxo-3H-isoindol-2-yl)pyridin-4-yl]-3-(4-methyl-1,2,4-triazol-3-yl)benzonitrile]: the IC50 in assay [1] and in assay [2] was ≤ 200 nM in each case.
Regarding `Cn1cnnc1-c1cc(C#N)ccc1-c1cc(C2CC2)nc(N2Cc3ccc(CN4CCC5(CC5)C4)cc3C2=O)c1` [AND-1, 4-[2-(6-{5-Azaspiro[2.4]heptan-5-ylmethyl}-1-oxo-3H-isoindol-2-yl)-6-cyclopropylpyridin-4-yl]-3-(4-methyl-1,2,4-triazol-3-yl)benzonitrile], the IC50 in assay [1] and in assay [2] was ≤ 200 nM each time.
As for `Cn1cnnc1-c1cc(C#N)ccc1-c1cc(C2CC2)nc(N2Cc3c(cc(CNCC4COC4)c(F)c3F)C2=O)c1` [ANE-1, 4-[2-Cyclopropyl-6-(4,5-difluoro-6-{[(oxetan-3-ylmethyl)amino]methyl}-1-oxo-3H-isoindol-2-yl)pyridin-4-yl]-3-(4-methyl-1,2,4-triazol-3-yl)benzonitrile], the IC50 in assay [1] and in assay [2] was ≤ 200 nM throughout.
With `Cn1cnnc1-c1cc(C#N)ccc1-c1cc(C2CC2)nc(N2Cc3ccc(CNC4CCC4)cc3C2=O)c1` [ANI-2, 4-(2-{6-[(Cyclobutylamino)methyl]-1-oxo-3H-isoindol-2-yl}-6-cyclopropylpyridin-4-yl)-3-(4-methyl-1,2,4-triazol-3-yl)benzonitrile], the IC50 in assay [1] and in assay [2] was ≤ 200 nM each time.
On to `C[C@@H](NCc1ccc2c(c1)C(=O)N(c1cc(-c3ccc(C#N)cc3-c3nncn3C)cc(C3CC3)n1)C2)C1COC1` [ANJ-2, (R)-4-(2-Cyclopropyl-6-(6-(((1-(oxetan-3-yl)ethyl)amino)methyl)-1-oxoisoindolin-2-yl)pyridin-4-yl)-3-(4-methyl-4H-1,2,4-triazol-3-yl)benzonitrile], for which the IC50 in assay [1] and in assay [2] was ≤ 200 nM throughout.
Regarding `C[C@H](NCc1ccc2c(c1)C(=O)N(c1cc(-c3ccc(C#N)cc3-c3nncn3C)cc(C3CC3)n1)C2)C1COC1` [ANK-2, (S)-4-(2-Cyclopropyl-6-(6-(((1-(oxetan-3-yl)ethyl)amino)methyl)-1-oxoisoindolin-2-yl)pyridin-4-yl)-3-(4-methyl-4H-1,2,4-triazol-3-yl)benzonitrile], the IC50 in assay [1] and in assay [2] was ≤ 200 nM in each case.
Regarding `Cn1cnnc1-c1cc(C#N)ccc1-c1cc(C2CC2)nc(N2Cc3ccc(CNCC4(F)COC4)cc3C2=O)c1` [ANL-2, 4-{2-Cyclopropyl-6-[6-({[(3-fluorooxetan-3-yl)methyl]amino}methyl)-1-oxo-3H-isoindol-2-yl]pyridin-4-yl}-3-(4-methyl-1,2,4-triazol-3-yl)benzonitrile], the IC50 in assay [1] and in assay [2] was ≤ 200 nM in each case.
Consider `Cn1cnnc1-c1cc(C#N)ccc1-c1cc(C2CC2)nc(N2Cc3ccc(CNC(C)(C)C4COC4)cc3C2=O)c1` [ANM-2, 4-{2-Cyclopropyl-6-[6-({[2-(oxetan-3-yl)propan-2-yl]amino}methyl)-1-oxo-3H-isoindol-2-yl]pyridin-4-yl}-3-(4-methyl-1,2,4-triazol-3-yl)benzonitrile], for which the IC50 in assay [1] and in assay [2] was ≤ 200 nM throughout.
Take `C[C@@H](NCC1COC1)c1ccc2c(c1)C(=O)N(c1cc(-c3ccc(C#N)cc3-c3nncn3C)cc(C3CC3)n1)C2` [ANN-2, (R)-4-(2-Cyclopropyl-6-(6-(1-((oxetan-3-ylmethyl)amino)ethyl)-1-oxoisoindolin-2-yl)pyridin-4-yl)-3-(4-methyl-4H-1,2,4-triazol-3-yl)benzonitrile]: the IC50 in assay [1] and in assay [2] was ≤ 200 nM each time.
For the molecule `C[C@H](NCC1COC1)c1ccc2c(c1)C(=O)N(c1cc(-c3ccc(C#N)cc3-c3nncn3C)cc(C3CC3)n1)C2` [ANO-1, (S)-4-(2-Cyclopropyl-6-(6-(1-((oxetan-3-ylmethyl)amino)ethyl)-1-oxoisoindolin-2-yl)pyridin-4-yl)-3-(4-methyl-4H-1,2,4-triazol-3-yl)benzonitrile], the IC50 in assay [1] and in assay [2] was ≤ 200 nM in each case.
On to `Cn1cnnc1-c1cc(C#N)ccc1-c1cc(C2CC2)nc(N2Cc3ccc(CN[C@H]4CCOC4)cc3C2=O)c1` [ANQ-2, 4-[2-Cyclopropyl-6-(1-oxo-6-{[(3S)-oxolan-3-ylamino]methyl}-3H-isoindol-2-yl)pyridin-4-yl]-3-(4-methyl-1,2,4-triazol-3-yl)benzonitrile], for which the IC50 in assay [1] and in assay [2] was ≤ 200 nM in each case.
Consider `Cn1cnnc1-c1cc(F)ccc1-c1cc(C2CC2)nc(N2Cc3cc(Cl)c(CN[C@@H]4CCC[C@@H]4O)cc3C2=O)c1` [ANR-2, 5-Chloro-2-{6-cyclopropyl-4-[4-fluoro-2-(4-methyl-1,2,4-triazol-3-yl)phenyl]pyridin-2-yl}-6-({[(1R,2S)-2-hydroxycyclopentyl]amino}methyl)-3H-isoindol-1-one], for which the IC50 in assay [1] and in assay [2] was ≤ 200 nM each time.
Turning to `COCCN(C)Cc1cc(F)c2c(c1)C(=O)N(c1cc(-c3ccc(C#N)cc3-c3nncn3C)cc(C3CC3)n1)C2` [ANT-1, 4-[2-Cyclopropyl-6-(4-fluoro-6-{[(2-methoxyethyl)(methyl)amino]methyl}-1-oxo-3H-isoindol-2-yl)pyridin-4-yl]-3-(4-methyl-1,2,4-triazol-3-yl)benzonitrile], the IC50 in assay [1] and in assay [2] was ≤ 200 nM each time.
Regarding `Cn1cnnc1-c1cc(C#N)ccc1-c1cc(C2CC2)nc(N2Cc3c(F)cc(CN4C[C@]5(C)C[C@H]4CO5)cc3C2=O)c1` [ANU-3, 4-(2-cyclopropyl-6-(4-fluoro-6-(((1S,4S)-1-methyl-2-oxa-5-azabicyclo[2.2.1]heptan-5-yl)methyl)-1-oxoisoindolin-2-yl)pyridin-4-yl)-3-(4-methyl-4H-1,2,4-triazol-3-yl)benzonitrile], the IC50 in assay [1] and in assay [2] was ≤ 200 nM throughout.
Take `Cn1cnnc1-c1cc(C#N)ccc1-c1cc(C2CC2)nc(N2Cc3c(F)cc(CN4C[C@@]5(C)C[C@@H]4CO5)cc3C2=O)c1` [ANV-1, 4-(2-Cyclopropyl-6-(4-fluoro-6-(((1R,4R)-1-methyl-2-oxa-5-azabicyclo[2.2.1]heptan-5-yl)methyl)-1-oxoisoindolin-2-yl)pyridin-4-yl)-3-(4-methyl-4H-1,2,4-triazol-3-yl)benzonitrile]: the IC50 in assay [1] and in assay [2] was ≤ 200 nM each time.
Consider `COCC(NCc1cc(F)c2c(c1)C(=O)N(c1cc(-c3ccc(C#N)cc3-c3nncn3C)cc(C3CC3)n1)C2)C(F)(F)F` (centres unmarked) [ANW-3, 4-[2-Cyclopropyl-6-(4-fluoro-1-oxo-6-{[(1,1,1-trifluoro-3-methoxypropan-2-yl)amino]methyl}-3H-isoindol-2-yl)pyridin-4-yl]-3-(4-methyl-1,2,4-triazol-3-yl)benzonitrile], for which the IC50 in assay [1] and in assay [2] was ≤ 200 nM throughout.
Take `CN(Cc1ccc2c(c1)C(=O)N(c1cc(-c3ccc(C#N)cc3-c3nncn3C)cc(C3CC3)n1)C2)CC1COC1` [ANX-2, 4-[2-Cyclopropyl-6-(6-{[methyl(oxetan-3-ylmethyl)amino]methyl}-1-oxo-3H-isoindol-2-yl)pyridin-4-yl]-3-(4-methyl-1,2,4-triazol-3-yl)benzonitrile]: the IC50 in assay [1] and in assay [2] was ≤ 200 nM each time.
